Measurements: patent US9326513B2, “Fungicidal compositions” (Syngenta Participations AG, priority 2011, dated 2016)

What was measured:
[1] = tested on: Puccinia recondita f. sp. tritici; test: Puccinia recondita f. sp. tritici / wheat / leaf disc preventative (brown rust); assay type: in vivo; conditions: foliar, compared to untreated control leaf disks, read-out: disease control
Source text: Puccinia recondita f. sp. tritici/Wheat/Leaf Disc Preventative (Brown Rust) Wheat leaf segments cv. Kanzler were placed on agar in multiwell plates (24-well format) and sprayed with the formulated test compound diluted in water. The leaf disks were inoculated with a spore suspension of the fungus 1 day after application.

[2] = tested on: Puccinia recondita f. sp. tritici; test: Puccinia recondita f. sp. tritici / wheat / leaf disc curative (brown rust); assay type: in vivo; conditions: foliar, compared to untreated control leaf disks, read-out: disease control
Experimental: Puccinia recondita f. sp. tritici/Wheat/Leaf Disc Curative (Brown Rust) Wheat leaf segments cv. Kanzler are placed on agar in multiwell plates (24-well format). The leaf segments are inoculated with a spore suspension of the fungus. Plates were stored in darkness at 19° C. and 75% rh. The formulated test compound diluted in water was applied 1 day after inoculation.

Row | SMILES | pest or weed control at 200 ppm [1] | pest or weed control at 200 ppm [2]
1 | CCN(C)/C=N/c1cc(Br)c(OC(C)c2ccccc2C#Cc2ccccc2)nc1C (stereo not drawn) [Q.313] | ≥ 50% | –
2 | CCN(C)/C=N/c1cc(Br)c(OCc2ccc(Cl)cc2Cl)nc1C [Q.096] | ≥ 50% | ≥ 50%
3 | CCN(C)/C=N/c1cc(Br)c(OCc2snc(-c3ccccc3)c2C#N)nc1C [Q.210] | ≥ 50% | –
4 | CCN(C)/C=N/c1cc([Si](CC)(CC)CC)c(OCc2ccccc2C)nc1C [Q.258] | ≥ 50% | ≥ 50%
5 | CCN(C)/C=N/c1cc(Br)c(OCCO)nc1C [Q.056] | ≥ 50% | –
6 | CC#Cc1cc(/N=C/N(C)CC)c(C)nc1OC1CCC(C(C)C)CC1 (stereo not drawn) [Q.254] | ≥ 50% | ≥ 50%
7 | CCN(C)/C=N/c1cc(Br)c(OC(C)(C)c2ccccc2)nc1C [Q.279] | ≥ 50% | ≥ 50%
8 | CCC[Si](CCC)(CCC)c1cc(/N=C/N(C)CC)c(C)nc1OCc1ccccc1C [Q.259] | ≥ 50% | –
9 | CCN(C)/C=N/c1cc(-c2cccnc2)c(OC(C)c2cc(F)cc(F)c2)nc1C (stereo not drawn) [Q.266] | ≥ 50% | –
10 | Cc1nc(OC(C)c2cc(F)cc(F)c2)c(Br)cc1/N=C/N1CC=CC1 (stereo not drawn) [Q.194] | ≥ 50% | ≥ 50%
11 | CCN(C)/C=N/c1cc(Br)c(OC(C)c2ccccc2CCc2ccccc2)nc1C (stereo not drawn) [Q.314] | ≥ 50% | –
12 | CCN(C)/C=N/c1cc(Br)c(OCc2cc(-c3ccccc3)ns2)nc1C [Q.107] | ≥ 50% | –
13 | CCN(C)/C=N/c1cc(Br)c(O)nc1C [Q.379] | ≥ 50% | –
14 | Cc1nc(OCCCC(C)C)c(Br)cc1/N=C/NC(C)(C)C [Q.009] | ≥ 50% | –
15 | CCN(C)/C=N/c1cc(Br)c(OCCOCOC)nc1C [Q.061] | ≥ 50% | –
16 | CCN(C)/C=N/c1cc(Br)c(OC2CCCc3ccccc32)nc1C (stereo not drawn) [Q.138] | ≥ 50% | –
17 | C#CC(C)N(C)/C=N/c1cc(Br)c(OC(C)c2cc(F)cc(F)c2)nc1C (stereo not drawn) [Q.190] | ≥ 50% | –

Row | SMILES | pest or weed control at 200 ppm [1] | pest or weed control at 200 ppm [2]
18 | CCN(C)/C=N/c1cc(Br)c(OC2C=C(C)CCC2)nc1C (stereo not drawn) [Q.173] | ≥ 50% | –
19 | CCN(C)/C=N/c1ccc(OCc2cc(OC)cc(OC)c2)nc1C [Q.372] | ≥ 50% | ≥ 50%
20 | CCN(C)/C=N/c1ccc(O[C@H]2CC[C@H](C(C)C)CC2)nc1C [Q.182] | ≥ 50% | ≥ 50%
21 | CCN(C)/C=N/c1cc(Br)c(OC2CC(C)CCC2C(C)C)nc1C (stereo not drawn) [Q.083] | ≥ 50% | –
22 | CCN(C)/C=N/c1cc([Si](C)(C)C)c(OCc2ccccc2C)nc1C [Q.257] | ≥ 50% | ≥ 50%
23 | Cc1cc(C)cc(CC(C)Oc2ccc(/N=C/N(C)C(C)C)c(C)n2)c1 (stereo not drawn) [Q.362] | ≥ 50% | ≥ 50%
24 | CCN(C)/C=N/c1cc(Br)c(OCc2snc(-c3ccc(F)cc3)c2C#N)nc1C [Q.157] | ≥ 50% | –
25 | Cc1nc(OCCCC(C)C)c(Br)cc1/N=C/NC(C)C [Q.008] | ≥ 50% | –
26 | CCN(C)/C=N/c1cc(Br)c(OCc2cccc(N)c2)nc1C [Q.328] | ≥ 50% | –
27 | CCN(C)/C=N/c1cc(-c2ccc(F)cc2)c(OC(C)c2cc(F)cc(F)c2)nc1C (stereo not drawn) [Q.264] | ≥ 50% | –
28 | CCCC(CCC)Oc1nc(C)c(/N=C/N(C)CC)cc1Br [Q.150] | ≥ 50% | –
29 | CCN(C)/C=N/c1cc(Br)c(OC(CC(C)C)CC(C)C)nc1C [Q.234] | ≥ 50% | –
30 | CCN(C)/C=N/c1cc(Br)c(OC)nc1C [Q.387] | ≥ 50% | –
31 | CN/C=N/c1cc(Br)c(OCCCC(C)C)nc1C [Q.003] | ≥ 50% | –
32 | CCN(C)/C=N/c1cc(Br)c(O[C@H]2CC[C@H](C(C)C)CC2)nc1C [Q.268] | ≥ 50% | –
33 | C#CCN(C)/C=N/c1cc(Br)c(OC(C)c2cc(F)cc(F)c2)nc1C (stereo not drawn) [Q.189] | ≥ 50% | –
